Reference: US12433876B2, “Septin inhibitors for treatment of cancers” (UNIVERSITY OF ROCHESTER, priority 2019, dated 2025)

What was measured:
PANC-1 cell line = experiment: RNA-Seq whole transcriptome analysis, PANC-1; assay type: cell-based, human; conditions: 10 nM Afatinib, 1 μM UR214-9
HER2+ PANC-1 xenograft = experiment: PANC-1 xenograft tumor growth; assay type: in vivo, NSG mice; conditions: 25 mg/kg IP, 52 days; p<0.0001
Text: Cell Cycle Protein Expression. Cell Cycle Antibody Array (FullMoon BioSystems Inc, catalogue number: ACC:058), a high throughput ELISA based antibody array, designed for qualitative/semi-quantitative protein expression profiling was employed to investigate the protein changes after drug treatment. PANC-1 cells were lysed in buffer containing protease and phosphatase inhibitors (Cell Signaling, catalog number: 9803S). Total protein content was quantified by Bradford assay and equal amounts of proteins were analyzed in duplicate with arrays containing 4 to 6 spots for each of 60 probes (ACC058, Cell Cycle Antibody Array; Full Moon Biosystems, Sunnyvale, Calif.), according to manufacturer's instructions. After background correction, mean signal intensities were measured using FullMoon Inc's imaging services. Protein expressions in both the naïve and 328 treatment group was normalized to GAPDH signals. Confocal Analysis of Septin Disarrangement. To determine the impact of UR214-9 treatment on Septin-2 structure in cells, PANC-1 or JIMT-1 cells were seeded on glass slides and allowed to adhere overnight. The media was replaced with complete DMEM media supplemented with DMSO or UR214-9 (1 μM and 70 nM) and cells were incubated for 48 hours. […] The cells were stained with fluorescence linked secondary antibody for 1 hr under dark. […] Five cells were outlined and analyzed per field. […]

## O=C(Nc1cc(Cl)nc(Cl)c1)Nc1cccc(SC(F)(F)F)c1F [UR214-9]
PANC-1 cell line
  significantly differentially expressed genes versus control: no differentially expressed genes
HER2+ PANC-1 xenograft
  xenograft tumor growth: significantly delayed growth
